Laboratory results as given in ChEMBL document CHEMBL5131570, “Discovery of Potent Small-Molecule USP8 Inhibitors for the Treatment of Breast Cancer through Regulating ERα Expression” (J Med Chem, 2022).
Active and inactive are the calls of the source. The calls are words filed in the database; no cut-off is given here.

Target: T1, Ubiquitin carboxyl-terminal hydrolase 8 (Homo sapiens, UniProt P40818)
T1 sequence (P40818 whole entry): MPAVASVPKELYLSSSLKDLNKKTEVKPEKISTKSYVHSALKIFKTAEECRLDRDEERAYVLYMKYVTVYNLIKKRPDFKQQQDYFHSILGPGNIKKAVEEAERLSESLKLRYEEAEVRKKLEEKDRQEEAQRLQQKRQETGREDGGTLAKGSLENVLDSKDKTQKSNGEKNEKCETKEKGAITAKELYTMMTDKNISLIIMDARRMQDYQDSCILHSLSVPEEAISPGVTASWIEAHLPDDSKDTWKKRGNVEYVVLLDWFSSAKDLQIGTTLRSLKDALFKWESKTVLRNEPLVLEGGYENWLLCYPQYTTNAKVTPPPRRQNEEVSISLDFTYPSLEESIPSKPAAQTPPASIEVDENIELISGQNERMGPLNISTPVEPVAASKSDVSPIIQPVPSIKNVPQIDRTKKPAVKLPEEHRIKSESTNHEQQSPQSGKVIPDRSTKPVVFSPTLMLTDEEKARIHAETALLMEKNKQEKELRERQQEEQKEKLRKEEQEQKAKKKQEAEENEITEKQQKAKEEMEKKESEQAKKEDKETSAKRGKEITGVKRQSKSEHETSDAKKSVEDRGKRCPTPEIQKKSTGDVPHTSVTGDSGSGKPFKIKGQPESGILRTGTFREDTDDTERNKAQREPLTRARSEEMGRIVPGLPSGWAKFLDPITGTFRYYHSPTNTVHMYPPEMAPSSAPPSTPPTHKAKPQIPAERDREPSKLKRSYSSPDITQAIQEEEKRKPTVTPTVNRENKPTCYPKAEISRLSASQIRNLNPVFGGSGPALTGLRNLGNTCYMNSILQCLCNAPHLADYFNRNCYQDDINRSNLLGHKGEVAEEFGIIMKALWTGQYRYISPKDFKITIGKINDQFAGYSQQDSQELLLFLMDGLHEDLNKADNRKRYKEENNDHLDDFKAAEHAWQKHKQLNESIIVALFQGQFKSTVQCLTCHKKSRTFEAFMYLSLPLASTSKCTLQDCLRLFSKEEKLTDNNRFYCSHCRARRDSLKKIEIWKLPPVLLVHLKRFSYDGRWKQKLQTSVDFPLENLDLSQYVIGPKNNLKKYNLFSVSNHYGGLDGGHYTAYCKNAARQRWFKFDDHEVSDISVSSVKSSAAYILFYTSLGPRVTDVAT
Assay: Inhibition of human full length USP8 overexpressed in baculovirus-infected insect cells using ubiquitin-C-terminal 7-amido-4-methylcoumarin as substrate by fluorescence spectroscopy
Conditions: not given

Compound	IC50
C=CCO/N=C1\c2ccccc2-c2nc(C#N)c(C#N)nc21	560 nM
N#Cc1cc2c(cc1C#N)-c1ccccc1C2=O	290 nM
N#Cc1nc2c(nc1C#N)-c1ccccc1/C2=N\OCc1ccccc1	850 nM

Target: T2, Ubiquitin carboxyl-terminal hydrolase 7 (Homo sapiens, UniProt Q93009)
Assay: Inhibition of human full length USP7 overexpressed in baculovirus-infected insect cells using ubiquitin-C-terminal 7-amido-4-methylcoumarin as substrate by fluorescence spectroscopy
Conditions: not given

T2 sequence (Q93009 whole entry): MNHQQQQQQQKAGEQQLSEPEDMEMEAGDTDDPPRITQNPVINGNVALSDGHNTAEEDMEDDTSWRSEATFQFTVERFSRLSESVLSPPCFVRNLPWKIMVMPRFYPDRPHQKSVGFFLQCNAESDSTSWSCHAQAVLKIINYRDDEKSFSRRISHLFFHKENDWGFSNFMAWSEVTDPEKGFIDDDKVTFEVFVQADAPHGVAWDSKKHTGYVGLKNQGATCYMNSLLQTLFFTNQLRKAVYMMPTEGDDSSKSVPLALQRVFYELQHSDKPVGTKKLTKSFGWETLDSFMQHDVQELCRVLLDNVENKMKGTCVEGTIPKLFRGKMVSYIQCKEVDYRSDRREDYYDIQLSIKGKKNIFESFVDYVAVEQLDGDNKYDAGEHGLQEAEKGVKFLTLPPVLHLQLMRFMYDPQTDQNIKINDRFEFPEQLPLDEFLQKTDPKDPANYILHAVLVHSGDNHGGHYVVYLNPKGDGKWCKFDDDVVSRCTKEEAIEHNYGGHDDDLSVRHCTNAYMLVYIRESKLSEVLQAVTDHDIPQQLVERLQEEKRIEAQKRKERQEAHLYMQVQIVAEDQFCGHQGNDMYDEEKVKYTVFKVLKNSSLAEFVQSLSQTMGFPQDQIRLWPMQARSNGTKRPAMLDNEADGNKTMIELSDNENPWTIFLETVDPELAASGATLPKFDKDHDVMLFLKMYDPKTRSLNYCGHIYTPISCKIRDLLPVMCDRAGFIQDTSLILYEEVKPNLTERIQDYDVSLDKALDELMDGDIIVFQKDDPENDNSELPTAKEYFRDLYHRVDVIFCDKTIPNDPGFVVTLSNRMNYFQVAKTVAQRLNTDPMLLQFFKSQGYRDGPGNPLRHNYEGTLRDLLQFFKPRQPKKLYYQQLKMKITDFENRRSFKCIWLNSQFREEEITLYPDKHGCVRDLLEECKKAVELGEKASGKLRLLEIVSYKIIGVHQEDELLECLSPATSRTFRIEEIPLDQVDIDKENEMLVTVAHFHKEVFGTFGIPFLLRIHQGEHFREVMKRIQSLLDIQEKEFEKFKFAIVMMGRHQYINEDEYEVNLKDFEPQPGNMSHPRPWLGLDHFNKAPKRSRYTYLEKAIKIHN

Compound	IC50
N#Cc1cc2c(cc1C#N)-c1ccccc1C2=O	3.5 µM

Target: T2, Ubiquitin carboxyl-terminal hydrolase 7
Assay: Inhibition of USP7 (unknown origin) […]
Conditions: not given

IC50	Compound
10.5 µM	COc1ccc(N2CCN(C(=S)Nc3ccc([N+](=O)[O-])cc3)CC2)c(N)c1

Target: T1, Ubiquitin carboxyl-terminal hydrolase 8
Assay: (§1) Inhibition of N-terminal His6-tagged USP8 (unknown origin) expressed in Escherichia coli BL21 (DE3) cells using ubiquitin-rhodamine -110 as substrate incubated for 15 mins followed by substrate addition measured after 1 hrs by ubiquitin-rhodamine-110 based fluorometric assay
Conditions: not given

IC50	Compound
2600 nM	COc1ccc(N2CCN(C(=S)Nc3ccc([N+](=O)[O-])cc3)CC2)c(N)c1

Target: T1, Ubiquitin carboxyl-terminal hydrolase 8
Assay: as §1, with “origin) catalytic domain (734 to 1110 residues)” for “origin)”, “cells assessed as deubiquitinating activity” for “cells”, “30” for “15”, “30 mins” for “1 hrs”
Conditions: not given

Compound	IC50
COc1c(O)cc(O)c2c(=O)cc(-c3ccc(N4CCOCC4)cc3)oc12	18.3 µM
COc1c(O)cc(O)c2c(=O)cc(-c3ccc(N4CCN(CCO)CC4)cc3)oc12	45.2 µM
Cc1n[nH]c(C)c1Oc1c(O)cc(O)c2c(=O)cc(-c3ccc(N4CCN(c5ccccc5)CC4)cc3)oc12	3.5 µM
COc1c(O)cc(O)c2c(=O)cc(-c3ccc(N4CCCNCC4)cc3)oc12	31.6 µM
Cc1n[nH]c(C)c1Oc1c(O)cc(O)c2c(=O)cc(-c3ccc(N4CCCNCC4)cc3)oc12	17.6 µM
CCN1CCN(c2ccc(-c3cc(=O)c4c(O)cc(O)c(Oc5c(C)n[nH]c5C)c4o3)cc2)CC1	15.5 µM

More lines, now with the values ahead:

IC50	Compound
16.5 µM	COc1c(O)cc(O)c2c(=O)cc(-c3ccc(N4CCN(C)CC4)cc3)oc12
16.3 µM	Cc1n[nH]c(C)c1Oc1c(O)cc(O)c2c(=O)cc(-c3ccc(N4CCN(C(C)C)CC4)cc3)oc12
5.1 µM	Cc1n[nH]c(C)c1Oc1c(O)cc(O)c2c(=O)cc(-c3ccc(N4CCN(C(=O)c5ccco5)CC4)cc3)oc12
23.5 µM	Cc1n[nH]c(C)c1Oc1c(O)cc(O)c2c(=O)cc(-c3ccc(N4CCN(CCO)CC4)cc3)oc12
16.2 µM	O=c1cc(-c2ccc(N3CCCNCC3)cc2)oc2c(OC3CCCCC3)c(O)cc(O)c12
16.2 µM	COc1c(O)cc(O)c2c(=O)cc(-c3ccc(N4CCCC4)cc3)oc12
36 µM	COc1c(O)cc(O)c2c(=O)cc(-c3ccc(N4CCC(O)CC4)cc3)oc12
43.7 µM	COc1c(O)cc(O)c2c(=O)cc(-c3ccc(N(CCO)CCO)cc3)oc12
2.2 µM	COc1c(O)cc(O)c2c(=O)cc(-c3ccc(N4CCN(C=O)CC4)cc3)oc12
24.5 µM	CC(C)Oc1c(O)cc(O)c2c(=O)cc(-c3ccc(N4CCCNCC4)cc3)oc12

Target: T1, Ubiquitin carboxyl-terminal hydrolase 8
Assay: Binding affinity to N-terminal His6-tagged USP8 catalytic domain (734 to 1110 residues) (unknown origin) expressed in Escherichia coli BL21 (DE3) cells by surface plasmon resonance method
Conditions: not given

Kd	Compound
43.6 µM	COc1c(O)cc(O)c2c(=O)cc(-c3ccc(N4CCCNCC4)cc3)oc12

System: MCF7
Assay: Antiproliferative activity against human MCF7 cells assessed as reduction in colony formation at 3 uM incubated for 7 days by crystal violet staining based colony formation assay
Assay type: functional, cell-based
Conditions: time 7.0 day

Compound	Activity
CCO/N=C1/c2ccccc2-c2nc(C#N)c(C#N)nc21	Active

Target: NAD(P)H dehydrogenase [quinone] 1 (Homo sapiens) (UniProt P15559)
Assay: Substrate activity at NQO1 (unknown origin) assessed as reduction in NADPH level measured per umol of NQO1 at 20 uM in presence of NADPH by absorbance based analysis
Conditions: not given

NAD(P)H dehydrogenase [quinone] 1 (Homo sapiens), sequence (P15559 whole entry): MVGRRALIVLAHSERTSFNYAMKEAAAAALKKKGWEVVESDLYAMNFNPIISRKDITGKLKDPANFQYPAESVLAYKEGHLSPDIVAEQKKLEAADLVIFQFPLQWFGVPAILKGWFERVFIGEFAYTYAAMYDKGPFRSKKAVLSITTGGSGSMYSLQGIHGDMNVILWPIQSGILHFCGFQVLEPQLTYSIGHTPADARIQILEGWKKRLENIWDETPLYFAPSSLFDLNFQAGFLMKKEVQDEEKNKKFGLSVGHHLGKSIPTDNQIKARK

Compound	Activity
CCO/N=C1/c2ccccc2-c2nc(C#N)c(C#N)nc21	1300 µmol/min
